In patent US9109001B2, “3′,5′-cyclic phosphoramidate prodrugs for HCV infection” (priority 2012, dated 2015):

Key:
[1] = Cytotoxicity evaluation (CellTiter-Blue Cell Viability Assay); assay type: cell-based, human; details: human, Zluc cells, read-out: HCV Replicon CC50
[2] = system: Huh-7 cells; assay: Release of active metabolite in Huh-7 cells; assay type: in vitro ADME, human; details: 10 μM test compound
Description: Assay for the Release of Active Metabolite in Huh-7 Cells. Huh-7 cells were plated in 1 mL culture medium (DMEM, containing glucose, L-glutamine and sodium pyruvate, 10% FBS, 100 IU/mL penicillin, 100 μg/mL streptomycin, 2 mM GlutaMAX, 1% MEM non-essential amino acids) at the concentration 0.8, 0.4 and 0.2 million cells per well on 6 well plates for 24, 48 and 72 hr treatment, respectively. Plated cells were incubated overnight at 37° C. in an incubator.
The following morning test compound was diluted to 20 μM from a stock solution in DMSO in fresh culture medium pre-warmed to 37° C. and 1 mL of the solution/well was added to cells. A final medium volume per well was 2.0 mL, test compound concentration in well was 10 μM and final DMSO concentration was 0.1%.
After 24, 48 or 72 hr, the medium was carefully removed and cell monolayers were washed twice with 2 mL ice-cold PBS per well. Following the last wash, all PBS was carefully removed and 1.0 mL of extraction solution (ice-cold 70% methanol) added. The plate was tightly covered with Parafilm, plastic plate cover and Parafilm again and an intracellular content was extracted at −20° C. for 24 hr.
After 24 hr extracts were transferred into polypropylene microfuge tubes and dry on a refrigerated centrivap concentrator. Dry residues were reconstituted in 250 μL of HPLC-grade water and centrifuged at 16,000×g for 10 min. Aliquots (100 μL each) of the supernatants were transferred into a 96 well plate and internal standard (4 ng/mL final concentration) was added as the internal standard (IS) for LC-MS/MS analysis.

[3] = system: Zluc cells; assay: Cytotoxicity evaluation (CellTiter-Blue Cell Viability Assay); assay type: cell-based, human; details: read-out: HCV Replicon CC50

SMILES	CC50 [1] [µM]	Huh-7 TP Cmax (pmol/mill cells) [2] [pmol/mill cells]	CC50 [3] [µM]
CCOc1nc(N)nc2c1ncn2[C@@H]1O[C@@H]2COP(=O)(N[C@@H](C)C(=O)OC(C)C)O[C@H]2[C@@]1(C)F (single isomer, unassigned) [Compound 1 Diastereomer 1]	> 50	283	–
CCOc1nc(N)nc2c1ncn2[C@@H]1O[C@@H]2COP(=O)(N[C@@H](C)C(=O)OC(C)C)O[C@H]2[C@@]1(C)F (single isomer, unassigned) [Compound 1 Diastereomer 2]	–	–	> 50
